The values below come from PubChem BioAssay (NCI).

The structures appear in SMILES notation.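 Results reflect a 48-hour exposure of cells in 96-well plates to compound at five concentrations. GI50 marks 50% less growth. The concentration for full growth arrest is given as TGI.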

Common to all, as to assay: NCI anticancer screen, dose series, 48 h
Experiment [1] has as its system A549 NSCLC.
In experiment [2] the test system is SN12C renal.
The subject of experiment [3] is SK-MEL-5 melanoma.
The test system of experiment [4] is HCC-2998 colon.
Experiment [5] relates to SW-620 colon.
The subject of experiment [6] is NCI-H226 lung.
The subject of experiment [7] is SF-268 CNS.
The subject of experiment [8] is SK-OV-3 ovarian.
Experiment [9] has as its system MOLT-4 leukemia.
Experiment [10] has as its system CAKI-1 renal.

Turning to `CC(=O)Nc1c(C)ccc2c1C(=O)c1ccccc1C2=O`, the TGI in [1], in [2], in [3], in [4], in experiment [5] and in experiment [6] was over 100 µM in each case. Further, the TGI in [7], in experiment [8], in [9] and in [10] was over 100 µM each time.
`Cc1occc1C(=S)Nc1ccc(Cl)c(/C=N/OC(C)C)c1`: the TGI in experiment [1] is 54.2 µM; in [2], 35.1 µM; in [3] it was 41.4 µM; in experiment [4] it was over 59.6 µM; in [5], 52.3 µM; in [6] it was 37.6 µM. The TGI in experiment [7] was over 62.2 µM; in [8], over 56.7 µM; in [9], over 57.6 µM; in experiment [10], 40.9 µM.
As for `O=C(Nc1ccc(F)cc1F)c1cc(Br)ccc1O`, the GI50 was 3260 nM in experiment [1]; 2260 nM in [2]; 1590 nM in [3]; 3750 nM in experiment [4]; 3060 nM in experiment [5]; 2620 nM in experiment [6]. In addition, the GI50 was 2780 nM in [7], 530 nM in experiment [8], 2960 nM in [9] and 1760 nM in experiment [10]. Moreover, the TGI in [1] was over 100 µM; in experiment [2], 9.26 µM; in [3] it was 3.34 µM; in experiment [4] it was 29.9 µM; in experiment [5], 55.9 µM; in experiment [6], 23.8 µM. The TGI in experiment [7] worked out at 38.7 µM; in [8], 3.5 µM; in [9], 12.2 µM; in experiment [10] it was 6.66 µM.
For `O=C(CC12CC3CC(CC(C3)C1)C2)NCCOCCOCCOCCNC(=O)c1cc2c(o1)C(=O)c1ccccc1C2=O`, the GI50 in experiment [1] was 331 nM; in experiment [2], 1030 nM; in experiment [3], 181 nM; in experiment [4] it was 1890 nM; in [5], 1680 nM; in experiment [6] it was 1750 nM. For the same molecule, the GI50 in experiment [7] is 2170 nM; in [8], 2550 nM; in [9] it was 2020 nM; in experiment [10], 1930 nM. The TGI was 1.18 µM in experiment [1]; 2.26 µM in experiment [2]; 0.343 µM in [3]; 3.6 µM in [4]; 4.61 µM in experiment [5]; 4 µM in experiment [6]. In addition, the TGI in experiment [7] was 5.59 µM; in experiment [8] it was 6.06 µM; in experiment [9] it was 6.22 µM; in [10] it was 5.74 µM.
In the case of `COc1cc2cc(C(=O)Nc3cc(N)c4ccccc4c3CCCl)[nH]c2c(OC)c1OC`, the GI50 in experiment [1] was 116 nM; in experiment [2], 54.8 nM; in [3], 68.8 nM; in experiment [4], 9.22 nM; in experiment [5] it was 16 nM; in experiment [6] it was 115 nM. Besides, the GI50 was 17 nM in experiment [7], 60.3 nM in experiment [8], 13.2 nM in experiment [9] and 19.3 nM in experiment [10]. In addition, the TGI in experiment [1] was over 50 µM; in experiment [2] it was 0.611 µM; in experiment [3] it was 0.195 µM; in [4], 0.034 µM; in [5], over 18.3 µM; in [6], 0.308 µM. In addition, the TGI in experiment [7] was found to be 6.87 µM.
On to `O=C1NC(=S)NC(=O)C1=Cc1cccc2cc3ccccc3cc12`, for which the TGI in experiment [1] is 12.7 µM; in experiment [2], 4.9 µM; in [3], 5.23 µM; in [4] it was 3.89 µM; in [5], over 25.2 µM; in experiment [6], 4.62 µM. For the same molecule, the TGI in experiment [7] was 4.73 µM; in experiment [8] it was 8.79 µM; in experiment [9], 5.24 µM; in experiment [10] it was 4.15 µM.
In the case of `C[C@@H]1N=C(c2ccc(Br)cc2)Nc2nc3ccccn3c2C1=O`, the GI50 in [1] was 6700 nM; in [2], 17600 nM; in [3], 2240 nM; in experiment [4], 21900 nM; in experiment [5] it was 3750 nM; in [6], 14700 nM. Besides, the GI50 in experiment [7] was 17200 nM; in [8], 4410 nM; in [9], 12800 nM; in [10], 3090 nM. The TGI in experiment [1] was over 100 µM; in experiment [2], over 100 µM; in experiment [3] it was 40.5 µM; in experiment [4], over 100 µM; in experiment [5], over 100 µM; in experiment [6], over 100 µM. Also, the TGI in [7], in [8], in [9] and in experiment [10] was over 100 µM throughout.
Turning to `c1ccc2c(c1)-c1ccccc1C2N1CC2CCC(CC2)C1`, the TGI was over 100 µM in experiment [1]; 55.6 µM in experiment [2]; 32.6 µM in [3]; 31.4 µM in [4]; 49.1 µM in [5]; 41.5 µM in [6]. The TGI was 37.8 µM in [7], over 100 µM in experiment [8], 28.2 µM in experiment [9] and over 100 µM in experiment [10].
Regarding `C=CCN1C=CC(=O)[C@H](O[Si](C)(C)C(C)(C)C)[C@@H]1/C=C/c1ccccc1`, the GI50 was 16800 nM in experiment [1]; 13800 nM in experiment [2]; 7330 nM in experiment [3]; 16200 nM in experiment [4]; 14500 nM in experiment [5]; 17900 nM in experiment [6]. For the same molecule, the GI50 was 15100 nM in experiment [7], 14900 nM in experiment [8], 10700 nM in experiment [9] and 15700 nM in experiment [10]. Also, the TGI was 50.3 µM in experiment [1]; 27.3 µM in experiment [2]; 20 µM in experiment [3]; 30.3 µM in experiment [4]; 29.3 µM in experiment [5]; 36.9 µM in experiment [6]. The TGI in [7] turned out to be 30.9 µM; in experiment [8] it was 28.6 µM; in [9], 28.8 µM; in [10], 32.7 µM.
Regarding `CCn1c(O)c(C=N)c(=O)n(CC)c1=O`, the TGI in experiment [1], in experiment [2], in experiment [3], in experiment [4], in experiment [5] and in experiment [6] was over 100 µM each time. The TGI in experiment [7], in [8], in experiment [9] and in experiment [10] was over 100 µM throughout.
With `CCOC(=O)C1=C(Nc2ccc(Cl)cc2Cl)OC/C1=N\NS(=O)(=O)c1ccc(C)cc1`, the TGI in experiment [1], in [2], in experiment [3], in experiment [4], in experiment [5] and in [6] was over 100 µM each time. For the same molecule, the TGI in [7], in experiment [8], in experiment [9] and in experiment [10] was over 100 µM in each case.
In the case of `COc1cc2c(cc1OCCCCCCN1CCN(c3ncnc4ccccc34)CC1)N=CC1CCCN1C2=O` (configuration not stated), the GI50 is 275 nM in experiment [1]; 155 nM in experiment [2]; 139 nM in experiment [3]; 191 nM in experiment [4]; 93.5 nM in experiment [5]; 125 nM in [6]. Moreover, the GI50 in experiment [7] was 201 nM; in experiment [8], 637 nM; in experiment [9], 37.8 nM; in experiment [10] it was 33.1 nM. In addition, the TGI in experiment [1] amounted to 5.55 µM; in experiment [2] it was 6.47 µM; in experiment [3] it was 0.287 µM; in [4] it was 0.52 µM; in [5] it was 0.566 µM; in [6], 0.33 µM. For the same molecule, the TGI in experiment [7] was 3.48 µM; in [8] it was 7.47 µM; in experiment [9], 0.203 µM; in [10], 0.436 µM.
Regarding `C[C@]12CC[C@H](OCCC#N)CC1=CC[C@@H]1C2CC[C@]2(C)/C(=N/OCCC#N)CCC12` (some centres not stated), the TGI in [1], in [2], in experiment [3], in experiment [4], in experiment [5] and in experiment [6] was over 100 µM each time. For the same molecule, the TGI in experiment [7], in [8], in experiment [9] and in [10] was over 100 µM throughout.
`Cc1cccc(C)c1NC(=O)CCc1nnc2s/c(=C\c3ccc(Cl)cc3)c(=O)n12`: the TGI in experiment [1] is over 100 µM; in [2], over 100 µM; in experiment [3], over 100 µM; in experiment [4], over 100 µM; in experiment [5], 40.2 µM; in [6], over 100 µM. Besides, the TGI in experiment [7], in experiment [8], in experiment [9] and in [10] was over 100 µM in each case.
Take `COC(=O)c1c2c(c(C)[n+]([O-])c1C)C(=O)C=C(NCc1ccc(OC)cc1)C2=O`: the GI50 was 2210 nM in experiment [1]; 1690 nM in experiment [2]; 607 nM in experiment [3]; 1540 nM in [4]; 1080 nM in experiment [5]; 2660 nM in experiment [6]. Besides, the GI50 in experiment [7] was 2240 nM; in [8], 3080 nM; in experiment [9], 1550 nM; in experiment [10] it was 1500 nM. Further, the TGI in experiment [1] was determined as 6.44 µM; in experiment [2], 4.3 µM; in experiment [3], 1.21 µM; in experiment [4] it was 4.78 µM; in experiment [5], 4.08 µM; in [6] it was 7.94 µM. Moreover, the TGI in experiment [7] is 8.27 µM; in [8], 9.3 µM; in [9] it was 5.3 µM; in [10], 6.81 µM.
On to `COc1ccc(-c2nc3ncccn3c2/C=C/C(=O)c2cc(OC)c(OC)c(OC)c2)cc1`, for which the GI50 is 2710 nM in experiment [1]; 2560 nM in experiment [2]; 1520 nM in experiment [3]; 1580 nM in [4]; 1750 nM in experiment [5]; 2280 nM in [6]. The GI50 in experiment [7] is 2360 nM; in experiment [8], 2500 nM; in experiment [9] it was 3100 nM; in experiment [10], 1580 nM. Also, the TGI in experiment [1] is over 100 µM; in experiment [2] it was 35.1 µM; in experiment [3] it was 2.87 µM; in experiment [4], 2.92 µM; in experiment [5], 3.94 µM; in experiment [6], 6.92 µM. Moreover, the TGI was 9.62 µM in experiment [7], 7.01 µM in [8], over 100 µM in experiment [9] and 5.06 µM in [10].
With `CC1(C)CC(n2cnc(-c3ccc(F)cc3)c2-c2ccnc(N)n2)CC(C)(C)N1`, the GI50 was 12500 nM in [1]; 17900 nM in experiment [2]; over 16200 nM in experiment [3]; over 25000 nM in [4]; 12100 nM in experiment [5]; over 13900 nM in experiment [6]. Moreover, the GI50 is 18700 nM in [7], 23600 nM in experiment [8], 17400 nM in experiment [9] and over 25000 nM in experiment [10]. The TGI in [1], in experiment [2], in experiment [3], in experiment [4], in experiment [5] and in experiment [6] was over 25 µM in each case. Moreover, the TGI in experiment [7], in [8], in experiment [9] and in experiment [10] was over 25 µM in each case.
As for `c1cc(OCCN2CCCCC2)ccc1CNc1ccc2nc(CCC3CCCCC3)[nH]c2c1`, the GI50 in experiment [1] was 2540 nM; in [2], 1520 nM; in experiment [3], 1630 nM; in experiment [4], 2050 nM; in experiment [5], 1820 nM; in experiment [6], 1830 nM. For the same molecule, the GI50 in experiment [7] was 2080 nM; in [8] it was 2070 nM; in experiment [9], 2010 nM; in [10] it was 1960 nM. For the same molecule, the TGI in experiment [1] came to 7.06 µM; in [2], 3.33 µM; in experiment [3], 3.01 µM; in [4] it was 4.28 µM; in [5], 3.84 µM; in experiment [6] it was 4.29 µM. Moreover, the TGI was determined as 5.43 µM in experiment [7], 4.18 µM in experiment [8], 6.2 µM in experiment [9] and 3.93 µM in [10].
